Data reported in patent US9546157B2, “Asymmetric piperidinyl-substituted ureas as medicines” (Helsinn Healthcare SA, priority 2014, dated 2017).
Entries after “also recorded” stand apart in the source; their conditions may differ.

What was measured:
GHSR1a [1] = molecular target: T1, GHSR1a (Homo sapiens, UniProt Q92847); experiment: Calcium FLIPR assay, GHSR-1a antagonism (reduction of ghrelin response); format: cell-based; conditions: HEK293/GHSR1a cells, ghrelin 10 nM
T1 construct: expressed in transfected cells; host or cells: HEK293
T1 sequence (Q92847 whole entry): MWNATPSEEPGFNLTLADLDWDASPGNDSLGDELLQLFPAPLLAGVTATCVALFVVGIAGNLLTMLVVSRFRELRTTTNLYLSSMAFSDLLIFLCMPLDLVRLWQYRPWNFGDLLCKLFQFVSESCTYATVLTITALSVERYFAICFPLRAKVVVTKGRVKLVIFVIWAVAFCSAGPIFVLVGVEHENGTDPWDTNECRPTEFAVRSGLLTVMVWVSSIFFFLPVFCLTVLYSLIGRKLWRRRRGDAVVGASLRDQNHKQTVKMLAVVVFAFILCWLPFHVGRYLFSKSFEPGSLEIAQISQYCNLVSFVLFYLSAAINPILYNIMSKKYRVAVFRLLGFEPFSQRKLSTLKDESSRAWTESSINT
In short: (§1)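 Relative fluorescence read-out (FLIPR) of intracellular calcium in HEK293/GHSR1a cells. For antagonist mode, compound and 10 nM ghrelin were co-added at t=20 sec, and inhibition of the ghrelin response over 2 minutes gave IC50. Agonist mode: compound alone at t=20 sec, response tracked 2 minutes; EC50 from dose-response.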

GHSR1a [2] = molecular target: T1, GHSR1a; experiment: Calcium FLIPR assay, GHSR-1a agonism; format: cell-based; conditions: HEK293/GHSR1a cells
In short: as §1

C57BL/6J mice = experiment: Food intake test in mouse (GHSR1a antagonists); format: in vivo; conditions: for inhibition in vivo at 30 mg/kg / inhibition in vivo at 10 mg/kg: Mus musculus, po
In short: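 Male C57BL/6J mice (18-22 g) were fasted overnight (16 h before dosing), then randomized by body weight to vehicle or test agent (n=6 each). Cumulative food intake was measured at 1, 2, 4, 8 and 24 hrs post-dose as premeasured food minus uneaten food.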

[3] = tested on: Marchigian Sardinian alcohol-preferring (msP) rats; experiment: Operant ethanol self-administration in msP rats; format: in vivo, rat; conditions: for operant responding for alcohol (10% ethanol self-administration), overall: oral 1 h before 30-min session, all doses tested (H0847 1, 3; H0816 3, 10; H0900 and H0860 3, 30 mg/kg)
Procedure: Training continued until stable baseline of alcohol responding was achieved. At this point, before initiation of treatments, rats were trained to gavage administration procedures for three consecutive days (pre-treatment phase) during which they received drug vehicle. At this point animals were tested for the effect of ghrelin antagonists on 10% (v/v) ethanol self-administration. Using a within-subject Latin square design, the first group of msP rats (N=12) was tested for the effect of H0847 (0.0, 1.0 and 3.0 mg/kg), while the second (N=12) was treated with H0816 (0.0, 3.0 and 10.0 mg/kg).
Once the experiment was finished, animals were left in their home cages for several days, in order to wash out the drugs. Then, the same rats were employed to test the remaining ghrelin antagonists compounds H0900 (0.0, 3.0 and 30.0 mg/kg) and H0860 (0.0, 3.0 and 30.0 mg/kg). Once a stable self-administration baseline was reached, treatments begun according to the same experimental procedures described for the previous drugs tested.
All the drugs (or vehicles) were administered orally 1 hour before the beginning of the operant session.
Male genetically selected alcohol-preferring Marchigian Sardinian (msP) rats were used (N=24). At the time of the experiments their body weight ranged between 350 and 400 g. They were housed 4 per cages in a room with a reverse 12:12 h light/dark cycle (lights off at 9:30 a.m.), temperature of 20-22° C. and humidity of 45-55%. Rats were offered free access to tap water and food pellets (4RF18, Mucedola, Settimo Milanese, Italy). All the procedures were conducted in adherence with the European Community Council Directive for Care and Use of Laboratory Animals and the National Institutes of Health Guide for the Care and Use of Laboratory Animals.
75 mg of each H0900 and H0860 were accurately weighed and suspended in 10 ml of 0.5% carboxymethyl cellulose sodium salt solution (CMC, Sigma-Aldrich Cat. C4888, lot 120M0216V). The lower dose solution was prepared by dilution of 30 mg/ml suspension with 0.5% CMC solution.
37.5 mg of H0816 were accurately weighed and suspended in 15 ml of 0.5% carboxymethyl cellulose sodium salt solution (CMC, Sigma-Aldrich Cat. C4888, lot 120M0216V). The lower dose solution was prepared by dilution of mg/ml suspension with 0.5% CMC solution.
11.25 mg of H0847 were accurately weighed and suspended in 15 ml of 0.5% carboxymethyl cellulose sodium salt solution (CMC, Sigma-Aldrich Cat. C4888, lot 120M0216V). The lower dose solution was prepared by dilution of mg/ml suspension with 0.5% CMC solution.
Suspensions were prepared freshly on test day. Vehicle was composed of a solution of 0.5% carboxymethyl cellulose sodium salt and was prepared by dissolving 1 g of CMC in 200 ml of distilled water. Vehicle and drugs were administered by gavage in a volume of 4 ml/kg of body weight 1 hour before the access to 10% alcohol solution. 10% (v/v) ethanol solution was prepared every two days by diluting 95% (v/v) ethanol solution (F.L. CARSETTI s.n.c-CAMERINO) in drinkable water.
The self-administration stations consisted of operant conditioning chambers (Med Associate, Inc) enclosed in sound-attenuating, ventilated environmental cubicles. Each chamber was equipped with a drinking reservoir (volume capacity: […]) positioned 4 cm above the grid floor in the centre of the front panel of the chamber, two retractable levers located 3 cm (one to the right and the other to the left) of the drinking receptacle and a white cue light located 6 cm above the lever. […] An IBM-compatible computer controlled the delivery of fluids (activation of syringe pump), presentation of visual stimuli and recording of the behavioral data.
Using operant self-administration chambers (Med Associates), msP rats were trained to lever press for 10% alcohol (v/v) until stable baseline of responding were achieved. 16 self-administration training sessions were carried out to train the animals. […]

[4] = Metabolic Stability (H = Human); format: in vitro ADME
[5] = Metabolic Stability (M = Mouse); format: in vitro ADME
[6] = 3 mg/kg oral 1 h before session
[7] = 30 mg/kg oral 1 h before session

Row | Structure (SMILES) | IC50 (GHSR1a [1]) [nM] | EC50 (GHSR1a [2]) [nM] | inhibition in vivo at 30 mg/kg (C57BL/6J mice; 30 mg/kg PO fasted mice, time not given) [%] | operant responding for alcohol (10% ethanol self-administration), overall [3] | inhibition in vivo at 10 mg/kg (C57BL/6J mice; 1 h, PO 10 mg/kg + ANA 30 mg/kg fed mice) [%] | inhibition in vivo at 30 mg/kg (C57BL/6J mice; 1 h, PO 30 mg/kg + ANA 30 mg/kg fed mice) [%] | inhibition in vivo at 30 mg/kg (C57BL/6J mice; 1 h, PO 30 mg/kg fasted mice) [%] | inhibition in vivo at 30 mg/kg (C57BL/6J mice; 1 h, PO 30 mg/kg fed mice) [%] | alcohol self-administration, post hoc [3, 6] | alcohol self-administration, post hoc [3, 7] | Metabolic Stability H [4] | Metabolic Stability M [5] | Mouse Food Intake, result in words (C57BL/6J mice; PO 10 mg/kg + ANA (ANAM) 30 mg/kg mice) | inhibition in vivo at 10 mg/kg (C57BL/6J mice; 1 h, PO 10 mg/kg + ANA 30 mg/kg mice) [%]
1 | C[C@H](NC(=O)N(C)C1CCN(C)CC1)c1ccc(-c2cnccn2)c(Cl)c1Cl [Compound H0816, (S)-3-(1-(2,3-dichloro-4-(pyrazin-2-yl)phenyl)ethyl)-1-methyl-1-(1-methylpiperidin-4-yl)urea] | 5.1 | > 30000 | 12 | had no effect on operant responding for alcohol; also recorded: had no effect on ethanol responses | – | – | – | – | – | – | – | – | – | –
2 | CN1CCC(N(C)C(=O)N[C@H](c2ccc(-c3cnccn3)c(Cl)c2Cl)C(F)(F)F)CC1 [Compound H0900, (R)-3-(1-(2,3-dichloro-4-(pyrazin-2-yl)phenyl)-2,2,2-trifluoroethyl)-1-methyl-1-(1-methylpiperidin-4-yl)urea] | 3 | > 30000 | – | significantly reduced operant responding for alcohol; also recorded: statistically significant decrease in ethanol self-administration | 60 | 91 | 26 | 90 | significant reduction of alcohol self-administration | significant reduction of alcohol self-administration | Medium | High | – | –
3 | C[C@H](NC(=O)N(C)C1CCN(C)CC1)c1ccc(-c2cncc(F)n2)c(Cl)c1Cl [Compound H0847, (S)-3-(1-(2,3-dichloro-4-(6-fluoropyrazin-2-yl)phenyl)ethyl)-1-methyl-1-(1-methylpiperidin-4-yl)urea] | 2 | > 30000 | – | had no effect on operant responding for alcohol; also recorded: had no effect on ethanol responses | – | – | – | – | – | – | High H High M | High H High M | PO 10 mg/kg + ANA 30 mg/kg mice: NSE | –
4 | CC[C@H](NC(=O)N(C)C1CCN(C)CC1)c1ccc(-c2cnccn2)c(Cl)c1Cl [Compound H0860, (S)-3-(1-(2,3-dichloro-4-(pyrazin-2-yl)phenyl)propyl)-1-methyl-1-(1-methylpiperidin-4-yl)urea] | 3 | > 30000 | – | significantly reduced operant responding for alcohol; also recorded: statistically significant decrease in ethanol self-administration | – | – | – | – | only the higher dose (30 mg/kg) reduced ethanol self-administration | significant reduction of alcohol self-administration | High H High M | High H High M | – | 68
